Here are results for 17 compounds from ChEMBL document CHEMBL6087431, “Discovery of a selective and potent inhibitor of c-Jun N-terminal kinase 1 with anti-pulmonary fibrosis effect” (Bioorg Med Chem Lett, 2025).

Assay [1] addresses T1, Mitogen-activated protein kinase 8 (Homo sapiens, UniProt P45983). In words: Inhibition of JNK1 (unknown origin).
Assay [2] has as its target Mitogen-activated protein kinase 9 (Homo sapiens, UniProt P45984). In words: Inhibition of JNK2 (unknown origin).
Assay [3] concerns the target T1, Mitogen-activated protein kinase 8. Conditions: dose 2.0 nM.
Assay [4] shares this target. Conditions: dose 10.0 nM.
The test system of assay [5] is A549. In words: Anti-fibrotic activity in human A549 cells assessed as reduction in TGFbeta1-induced fibronectin expression at 0.3 uM by Western blot analysis. The class given is functional, cell-based. In general terms: Immunoblotting shows a protein as a band on a membrane.
Assay [6] relates to A549. In words: Anti-fibrotic activity in human A549 cells assessed as reduction in TGFbeta1-induced c-Jun expression at 0.3 uM by Western blot analysis. The assay is classed as functional, cell-based.

Calls of active or inactive are those of the source. The calls are words filed in the database; no cut-off is given here.

Sequence of Mitogen-activated protein kinase 9 (P45984 whole entry): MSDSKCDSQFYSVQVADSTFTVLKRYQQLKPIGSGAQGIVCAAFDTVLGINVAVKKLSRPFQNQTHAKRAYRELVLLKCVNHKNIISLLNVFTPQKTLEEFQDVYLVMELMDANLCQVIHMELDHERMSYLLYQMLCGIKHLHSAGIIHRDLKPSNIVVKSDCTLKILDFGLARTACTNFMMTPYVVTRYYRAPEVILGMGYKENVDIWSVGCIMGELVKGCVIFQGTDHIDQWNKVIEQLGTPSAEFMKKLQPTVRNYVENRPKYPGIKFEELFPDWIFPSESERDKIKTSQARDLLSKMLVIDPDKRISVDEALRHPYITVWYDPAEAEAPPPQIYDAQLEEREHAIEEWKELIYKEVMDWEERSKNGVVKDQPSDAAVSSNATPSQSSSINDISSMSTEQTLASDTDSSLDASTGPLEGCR
T1 sequence (P45983 whole entry): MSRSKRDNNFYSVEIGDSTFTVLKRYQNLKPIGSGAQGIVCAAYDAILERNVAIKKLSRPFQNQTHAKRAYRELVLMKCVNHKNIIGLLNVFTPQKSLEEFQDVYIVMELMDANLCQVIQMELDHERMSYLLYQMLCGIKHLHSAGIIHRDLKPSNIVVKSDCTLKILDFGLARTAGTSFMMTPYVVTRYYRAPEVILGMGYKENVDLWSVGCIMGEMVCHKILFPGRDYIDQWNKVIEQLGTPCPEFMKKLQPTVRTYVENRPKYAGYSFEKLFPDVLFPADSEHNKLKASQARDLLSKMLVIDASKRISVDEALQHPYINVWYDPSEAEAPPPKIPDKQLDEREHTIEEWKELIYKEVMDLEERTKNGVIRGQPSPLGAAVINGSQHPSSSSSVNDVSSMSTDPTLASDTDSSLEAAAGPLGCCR

Take `NC(=O)c1ccccc1Nc1nc(Nc2ccc(C(=O)N3CCC4(CCOC4)CC3)cc2)ncc1Br`: the IC50 (commonly the concentration at which inhibition is half-maximal) stood at 1.4 nM in assay [1] and 7.4 nM in assay [2]. Also, the inhibition (commonly the drop in the measured response relative to a control, in per cent) in assay [3] was determined as 60.4%.

As for `NC(=O)c1ccccc1Nc1nc(Nc2ccc(C(=O)N3CC4CCC(C3)N4)cc2)ncc1Br`, the inhibition in assay [3] was 45.1%. With `NC(=O)c1ccccc1Nc1nc(Nc2ccc(C(=O)N3CCC4(CCNCC4)CC3)cc2)ncc1Br`, the inhibition in assay [3] came to 33.2%. Same read-out and setting: the figure for `NC(=O)c1ccccc1Nc1nc(Nc2ccc(C(=O)N3CCC4(CCNC4)CC3)cc2)ncc1Br` is 49.9%.

`NC(=O)c1ccccc1Nc1nc(Nc2ccc(C(=O)N3CCC4(CCCO4)CC3)cc2)ncc1Br`: the inhibition in assay [3] was determined as 47.6%.

`NC(=O)c1ccccc1Nc1nc(Nc2ccc(C(=O)N3CCC4(CCOCC4)CC3)cc2)ncc1Br` yielded an inhibition in assay [3] of 46.8%. Still for that read-out and setting: the figure for `NC(=O)c1ccccc1Nc1nc(Nc2ccc(C(=O)N3CCC4(CC3)OCCO4)cc2)ncc1Br` is 15%. Turning to `NC(=O)c1ccccc1Nc1nc(Nc2ccccc2)ncc1Br`, the IC50 in assay [1] was determined as 3 nM; in assay [2] it was 9.4 nM. The inhibition came out at 62.1% in assay [4] and 18.1% in assay [3]. Consider `NC(=O)c1ccccc1Nc1nc(Nc2ccc(C(=O)N3CC4CC3CO4)cc2)ncc1Br` (stereo not drawn), for which the IC50 in assay [1] amounted to 0.8 nM; in assay [2], 8.3 nM. For the same compound, the result with A549 [5] and in the assay on A549 [6] was Active. Also, the inhibition in assay [3] came to 76.1%. As for `NC(=O)c1ccccc1Nc1nc(Nc2ccc(C(=O)N3C4CCC3COC4)cc2)ncc1Br`, the inhibition in assay [3] turned out to be 46.3%.

In assay [3], `NC(=O)c1ccccc1Nc1nc(Nc2ccc(C(=O)N3C4CCC3CNC4)cc2)ncc1Br` showed an inhibition of 34.4%. Same read-out and setting: the figure for `NC(=O)c1ccccc1Nc1nc(Nc2ccc(C(=O)N3CC4CC(C3)O4)cc2)ncc1Br` is 10.8%. With `CN1CC2CCC(C1)N2C(=O)c1ccc(Nc2ncc(Br)c(Nc3ccccc3C(N)=O)n2)cc1`, the half-maximal inhibitory concentration (IC50) in assay [1] was 1.5 nM; in assay [2] it was 12.6 nM. Also, the inhibition in assay [3] came out at 56.6%. For the compound `NC(=O)c1ccccc1Nc1nc(Nc2ccc(C(=O)N3CCC4(CCCCC4)CC3)cc2)ncc1Br`, the inhibition entry in assay [3] is “inactive”. `NC(=O)c1ccccc1Nc1nc(Nc2ccc(C(=O)N3CCC4(CCCC4)CC3)cc2)ncc1Br`: the inhibition result in assay [3] was “inactive”. The same measure, in the same setting: the figure for `NC(=O)c1ccccc1Nc1nc(Nc2ccc(C(=O)N3C[C@H]4C[C@@H]3CN4)cc2)ncc1Br` is 51.3%.

As for `CN1C[C@H]2C[C@@H]1CN2C(=O)c1ccc(Nc2ncc(Br)c(Nc3ccccc3C(N)=O)n2)cc1`, the inhibition in assay [3] came to 49.3%.
